Key:
[1] = target: T1, GPR40 (Homo sapiens, UniProt O14842); experiment: Cell-based aequorin assay (CHO cells stably expressing GPR40 and aequorin); parameters: expressed in transfected cells; host or cells: CHO cells stably transfected with GPR40 and aequorin; details: for EC50: activation of human GPR40, CHO cells, 0.01% HSA
In short: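 CHO cells stably co-expressing GPR40 and aequorin, loaded with coelenterazine (1 ug/mL, 2 h, room temperature) in H/HBSS with 20 mM Hepes and 0.01% fatty acid-free HSA. Serially diluted compounds added; luminescence recorded over 20 s. EC50 from dose-response of maximum relative light units.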

[2] = target: T1, GPR40; experiment: Inositol phosphate accumulation assay (A9_GPR40 cells); assay type: cell-based; parameters: expressed in transfected cells; host or cells: CHO cells stably transfected with GPR40 and aequorin; details: inositol phosphate assay, A9_GPR40 cells, 1 hour; read-out: IP3 EC50
In short: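 [^3H] inositol phosphate accumulation was measured by SPA after 1 h compound exposure at 37° C in HBSS/10 mM LiCl containing HSA, ending with a 20 mM formic acid quench. The GPR40-transfected A9 cells had first been labelled overnight (16 h) with 1 μCi/mL ^3H-inositol.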

[3] = target: T1, GPR40; experiment: Aequorin luminescence in response to compounds; assay type: cell-based; parameters: expressed in transfected cells; details: FIG. 2; as a function of concentration; compared with fatty acid ligands
Description: FIG. 2 is a graph showing Aequorin luminescence in response to various compounds as a function of concentration.

[4] = tested on: fetal rat intestinal cells isolated from E19 rat embryos; experiment: GLP-1 secretion into culture medium from fetal rat intestinal cells; assay type: cell-based; details: FIG. 5-7; cultured cells treated with serial dilutions of compound
Experimental: (§1) FIG. 5 is a graph showing the concentration of GLP-1 secreted into culture medium as a function of the amount of Example compounds 14 and 69.8. The GLP-1 was secreted from fetal rat intestinal cells isolated from E19 rat embryos. The cultured cells were treated with serial dilutions of the indicated compounds, and GLP-1 secreted into the culture medium was determined.
as §1, with “6” for “5”, “compound 66.6.” for “compounds 14 and 69.8.”, “compound,” for “compounds,”
as §1, with “7” for “5”, “14, 66.17, 77.3,” for “14”, “83.1.” for “69.8.”

T1 sequence (O14842 whole entry): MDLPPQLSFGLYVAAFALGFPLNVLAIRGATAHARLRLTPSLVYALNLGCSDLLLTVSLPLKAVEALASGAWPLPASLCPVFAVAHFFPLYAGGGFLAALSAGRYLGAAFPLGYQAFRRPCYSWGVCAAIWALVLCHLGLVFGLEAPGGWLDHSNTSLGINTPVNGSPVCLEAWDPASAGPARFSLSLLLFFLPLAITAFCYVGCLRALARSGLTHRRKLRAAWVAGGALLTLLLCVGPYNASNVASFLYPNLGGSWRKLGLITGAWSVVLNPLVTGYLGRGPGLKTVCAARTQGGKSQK

EC50 [1]	agonist type in aequorin assay ([1]; compared with α-linolenic acid and docosahexaenoic acid, FIG. 2)	EC50 [2]	Compound	Aequorin luminescence [3]	concentration of GLP-1 secreted into culture medium [4]
100 to 1000 nM		10 to 100 nM	COc1ccc(F)c(-c2ccc(COc3cccc([C@@H](CC(=O)O)[C@@H]4C[C@H]4C)c3)cc2C(C)(C)C)c1 (single isomer, unassigned) [Example 93.1]		
100 to 1000 nM		10 to 100 nM	COc1ccc(F)c(-c2ccc(COc3cccc([C@@H](CC(=O)O)[C@@H]4C[C@H]4C)c3)cc2C2=CCCC2(C)C)c1 (single isomer, unassigned) [Example 93.2]		
100 to 1000 nM		10 to 100 nM	COc1ccc(F)c(-c2ccc(COc3cccc(C(CC(=O)O)C4CC4)c3F)cc2C2CCCC2(C)C)c1 (single isomer, unassigned) [Example 99.2]		
100 to 1000 nM		10 to 100 nM	COc1ccc(F)c(-c2ccc(COc3cccc(C4(CC(=O)O)CCCCC4)c3)cc2C2CCCC2(C)C)c1 (single isomer, unassigned) [Example 105.1, (1-{3-[2-((S)-2,2-Dimethyl-cyclopentyl)-2′-fluoro-5′-methoxy-biphenyl-4-ylmethoxy]-phenyl}-cyclohexyl)-acetic acid or (1-{3-[2-((R)-2,2-dimethyl-cyclopentyl)-2′-fluoro-5′-methoxy-biphenyl-4-ylmethoxy]-phenyl}-cyclohexyl)-acetic acid]		
100 to 1000 nM		100 to 1000 nM	COc1ccc(F)c(-c2ccc(COc3cccc(C(C)(C)CC(=O)O)c3)cc2C(C)(C)C)c1 [Example 85.1, 3-[3-(2-tert-Butyl-2′-fluoro-5′-methoxy-biphenyl-4-ylmethoxy)-phenyl]-3-methyl-butyric acid]		
100 to 1000 nM		10 to 100 nM	COc1ccc(F)c(-c2ccc(COc3cccc(C(C)(C)CC(=O)O)c3)cc2C2=CCCC2(C)C)c1 [Example 85.2, 3-{3-[2-(5,5-Dimethyl-cyclopent-1-enyl)-2′-fluoro-5′-methoxy-biphenyl-4-ylmethoxy]-phenyl}-3-methyl-butyric acid]		

Further lines, the molecule ahead of its results:

Compound	EC50 [1]	agonist type in aequorin assay ([1]; compared with α-linolenic acid and docosahexaenoic acid, FIG. 2)	EC50 [2]	Aequorin luminescence [3]	concentration of GLP-1 secreted into culture medium [4]
COc1ccc(F)c(-c2ccc(COc3cccc([C@@H](CC(=O)O)C4CC4)c3)cc2C2CCCC2(C)C)c1 (single isomer, unassigned) [Example 66.4, (3S)-3-Cyclopropyl-3-(3-(((2-(2,2-dimethylcyclopentyl)-2′-fluoro-5′-(methyloxy)-1,1′-biphenyl-4-yl)methyl)oxy)phenyl)propanoic acid or (3R)-3-cyclopropyl-3-(3-(((2-(2,2-dimethylcyclopentyl)-2′-fluoro-5′-(methyloxy)-1,1′-biphenyl-4-yl)methyl)oxy)phenyl)propanoic acid]	100 to 1000 nM	potent full agonists	< 10 nM	equivalent to naturally occurring fatty acid ligands	
COc1ccc(F)c(-c2ccc(COc3cccc(C(CC(=O)O)C4CC4)c3)cc2C2CCCC2(C)C)c1 (single isomer, unassigned) [Example 66.6]	10 to 100 nM		< 10 nM		significantly stimulated GLP-1 secretion
COc1ccc(F)c(-c2ccc(COc3cccc([C@@H](CC(=O)O)C4CC4)c3)cc2CC(C)(C)C)c1 (single isomer, unassigned) [Example 66.17, (3S)-3-Cyclopropyl-3-(3-(((2-(2,2-dimethylpropyl)-2′-fluoro-5′-(methyloxy)-1,1′-biphenyl-4-yl)methyl)oxy)phenyl)propanoic acid or (3R)-3-cyclopropyl-3-(3-(((2-(2,2-dimethylpropyl)-2′-fluoro-5′-(methyloxy)-1,1′-biphenyl-4-yl)methyl)oxy)phenyl)propanoic acid]	10 to 100 nM		< 10 nM		significantly stimulated GLP-1 secretion
COc1ccc(F)c(-c2ccc(COc3cccc([C@@H](CC(=O)O)CC4CC4)c3)cc2[C@H]2CCCC2(C)C)c1 (single isomer, unassigned) [Example 69.8]	10 to 100 nM		< 10 nM		significantly stimulated GLP-1 secretion
CCC(CC(=O)O)c1cccc(OCc2ccc(-c3cc(OC)ccc3F)c(C3CCCC3(C)C)c2)c1F (single isomer, unassigned) [Example 77.3]	100 to 1000 nM		< 10 nM		significantly stimulated GLP-1 secretion
COc1ccc(F)c(-c2ccc(COc3cccc(C(CC(=O)O)C4CC4)c3F)cc2C2CCCC2(C)C)c1 (single isomer, unassigned) [Example 83.1]	10 to 100 nM		< 10 nM		significantly stimulated GLP-1 secretion
COc1ccc(F)c(-c2ccc(COc3cccc([C@H](CC(=O)O)C4CC4)c3)cc2[C@@H]2CCCC2(C)C)c1 (single isomer, unassigned) [Example 97.3]	100 to 1000 nM		10 to 100 nM		
CCC(C)(CC(=O)O)c1cccc(OCc2ccc(-c3cc(OC)ccc3F)c([C@@H]3CCCC3(C)C)c2)c1 (single isomer, unassigned) [Example 103, 3-(3-(((2-((1S)-2,2-Dimethylcyclopentyl)-2′-fluoro-5′-(methyloxy)-1,1′-biphenyl-4-yl)methyl)oxy)phenyl)-3-methylpentanoic acid or 3-(3-(((2-((1R)-2,2-dimethylcyclopentyl)-2′-fluoro-5′-(methyloxy)-1,1′-biphenyl-4-yl)methyl)oxy)phenyl)-3-methylpentanoic acid]	100 to 1000 nM		10 to 100 nM		
COc1ccc(F)c(-c2ccc(COc3cccc(C(C)(CC(=O)O)C4CC4)c3)cc2[C@H]2CCCC2(C)C)c1 (single isomer, unassigned) [Example 104, 3-Cyclopropyl-3-(3-(((2-((1S)-2,2-dimethylcyclopentyl)-2′-fluoro-5′-(methyloxy)-1,1′-biphenyl-4-yl)methyl)oxy)phenyl)butanoic acid or 3-cyclopropyl-3-(3-(((2-((1R)-2,2-dimethylcyclopentyl)-2′-fluoro-5′-(methyloxy)-1,1′-biphenyl-4-yl)methyl)oxy)phenyl)butanoic acid]	100 to 1000 nM		10 to 100 nM		
COc1ccc(F)c(-c2ccc(COc3cccc(CCC(=O)O)c3)cc2C(C)(C)C)c1 [Example 34, 3-(3-(((2-(1,1-Dimethylethyl)-2′-fluoro-5′-(methyloxy)-1,1′-biphenyl-4-yl)methyl)oxy)phenyl)propanoic acid]	100 to 1000 nM		100 to 1000 nM		
COc1cccc(-c2ccc(COc3cccc(CCC(=O)O)c3)cc2OC(F)(F)F)c1 [Example 37, 3-[3-(3′-Methoxy-2-trifluoromethoxy-biphenyl-4-ylmethoxy)-phenyl]-propionic acid]	100 to 1000 nM		> 1000 nM		
COc1ccc(F)c(-c2ccc(COc3cccc(CCC(=O)O)c3)cc2OC(F)(F)F)c1 [Example 38, 3-[3-(2′-Fluoro-5′-methoxy-2-trifluoromethoxy-biphenyl-4-ylmethoxy)-phenyl]-propionic acid]	100 to 1000 nM		1000 to 10000 nM		
COc1ccc(F)c(-c2ccc(COc3cccc(CCC(=O)O)c3)cc2C2=CCCC2)c1 [Example 39, 3-[3-(2-Cyclopent-1-enyl-2′-fluoro-5′-methoxy-biphenyl-4-ylmethoxy)-phenyl]-propionic acid]	1000 to 10000 nM		100 to 1000 nM		
COc1cccc(-c2ccc(COc3cccc(C(CC(=O)O)C4CC4)c3)cc2C2CCCC2(C)C)c1 (stereo not drawn) [Example 66.8]	10 to 100 nM		< 10 nM		
COc1ccc(F)c(-c2ccc(COc3cc(CCC(=O)O)ccn3)cc2C(C)(C)C)c1 [Example 72, 3-(2-(((2-(1,1-Dimethylethyl)-2′-fluoro-5′-(methyloxy)-1,1′-biphenyl-4-yl)methyl)oxy)-4-pyridinyl)propanoic acid]	100 to 1000 nM		1000 to 10000 nM		
COc1ccc(F)c(-c2ccc(COc3cc(CCC(=O)O)ccn3)cc2C2=CCCC2(C)C)c1 [Example 95, 3-(2-(((2-(5,5-Dimethyl-1-cyclopenten-1-yl)-2′-fluoro-5′-(methyloxy)-1,1′-biphenyl-4-yl)methyl)oxy)-4-pyridinyl)propanoic acid]	100 to 1000 nM		100 to 1000 nM		
